Measured values reported in patent US7368576B2, “Dipeptidyl peptidase IV inhibitors and their uses as anti-cancer agents” (Probiodrug AG, priority 2001, dated 2008).
“Also recorded” adds a separate entry of the source. Structures can show the parent of a compound that is named as a salt.

Columns and labels:
[1] = REINHOLD, D., et al., 1998; cited from earlier work
MADB106 tumor cells [2] = test: Cancer colonization assay (lung surface tumor colonies); format: in vivo; conditions: F344 rats, 2 weeks after MADB106 injection; for number of lung surface tumor colonies, comparison of inhibitors: chronic intragastric infusion, isoleucyl thiazolidine fumarate 4 mg/24 h, the others 0.1 mg/24 h, vs. saline SHAM
Description: (§1) Cell culture, injection of tumor cells, dissection of the animals and immunohistochemistry were conducted as previously described (von Hörsten et al., 2000). In brief, 1×10^6 MADB106 tumor cells derived from log phase of tumor growth were injected via the lateral tail vein and lungs removed at different time points thereafter. For in situ quantification of tumor cells at early time points after injection (30 min), cells were vital dye stained using the fluorescein derivate 5- (and -6)-carboxyfluorescein diacetate succinimidyl ester (CFSE) before injection.
as §1, with “In” for “Cell culture, injection of tumor cells, dissection of the animals and immunohistochemistry were conducted as previously described (von Hörsten et al., 2000). In”
(§2) Osmotic minipumps (Alzet model 2ML4; flow rate, 2.5 μl/hr; Alza Corporation), administering a constant supply of the different compounds, aseptically prefilled with either saline or DPIV inhibitor were placed subcutaneously in the abdominal area. Minipums were attached to a cannula via polyethylene tubing. The cannula was implanted intragastrically with a heating-induced enlarged tip of the cannula in the lumen of the gaster.

MADB106 tumor cells [3] = test: Body weight change in rats with lung metastasis; format: in vivo; conditions: F344 rats, chronic intragastric infusion via osmotic minipumps, 0.04, 0.4, 4 mg/24 h, 2 weeks after MADB106 injection, post-hoc significant at 0.4 mg and 4 mg
Description: as §2
Data from in vivo body weight gain and number of lung surface tumor colonies were analyzed by one-way ANOVAs and Fisher's PLSD post hoc tests, if appropriate. An asterisk indicates significant post hoc effects vs. saline (SHAM) treated controls obtained by Fisher's PLSD. All data are presented as means±S.E.M.

MADB106 tumor cells [4] = test: Cancer colonization assay (lung surface tumor colonies); format: in vivo, F344 rats; conditions: F344USA rats, 2 mg i.v. + 2 mg i.p., 2 weeks after MADB106 injection, vs. saline; fumarate
MADB106 tumor cells [5] = test: In vivo cancer cell adhesion assay (CFSE labeled cells in lungs); design: species or system F344 rats; conditions: 30 min after inoculation
Description: as §1
Control sections were included in which one or both primary antibodies were omitted.
Vital dye (Carboxyfluorescein; CFSE) labeling of MADB106 tumor cells allows the quantification of tumor cells and NK cells in thick sections of lung tissue by stereology in situ (von Hörsten et al, 2000). In the present study we produced thin sections (8 μm) of the same lungs (n=10) and performed additional microscopic counting by image analysis of DE1 positive cells. This was done to further simplify the previously validated stereological quantification technique. Therefore, in the present study, the assessment of DE1 positive tumor cells in lung tissue from different substrains 30 min after tumor inoculation was carried out using image analysis approach. […] Each right upper lobe of the lungs was sectioned at 6 randomly chosen non-adjacent levels. From each level, three sections were evaluated.

N[C@@H](CCC(=O)NCC(=O)O)C(=O)N1CCSC1 [Glu(Gly)-Thia]
transport [1]: transported completely

CC[C@H](C)[C@H](N)C(=O)N1CCSC1 [Isoleucyl thiazolidine fumarate]
number of lung surface tumor colonies, different dosages (MADB106 tumor cells [2]; chronic intragastric infusion 0.04, 0.4, 4 mg/24 h, post-hoc significant at 4 mg, fumarate): significant effect; also recorded: dose dependent reduction of lung colony numbers | number of lung surface tumor colonies, comparison of inhibitors (MADB106 tumor cells [2]; fumarate): dose-dependently reduced; also recorded: significant reduction of lung colony numbers | body weight change (cancer-induced weight loss) (MADB106 tumor cells [3]; fumarate): dose-dependently reduced; also recorded: dose dependent reduction of the loss of body weight | number of lung surface tumor colonies after single injection (MADB106 tumor cells [4]): no significant effect; also recorded: no significant differences | tumor cell adhesion, CFSE positive cells in lung tissue (MADB106 tumor cells [5]; DPIV mutant F344GER and F344JAP rats, single injection 2 mg i.v. + 2 mg i.p., fumarate): significantly modified; also recorded: promoting effect | tumor cell adhesion, CFSE positive cells in lung tissue (MADB106 tumor cells [5]; wild-type F344USA rats, single injection i.v. + i.p., vs. saline, fumarate): did not significantly affect tumor adhesion; also recorded: lack of effects

N[C@@H](CCCCNC(=O)OCc1ccc([N+](=O)[O-])cc1)C(=O)N1CCSC1 [Lys(Z-NO2)-Thia]
transport [1]: transported completely

CC[C@H](C)[C@H](N)C(=O)N1CCCC1C#N.O=C(O)C(F)(F)F (stereo partly drawn) [isoleucyl cyanopyrrolidine TFA]
number of lung surface tumor colonies, comparison of inhibitors (MADB106 tumor cells [2]; TFA): significant reduction of lung colony numbers | number of lung surface tumor colonies, comparison of inhibitors (MADB106 tumor cells [2]; listed as isoleucyl cyano pyrrolidine TFA, TFA): dose-dependently reduced | body weight change (cancer-induced weight loss) (MADB106 tumor cells [3]): dose-dependently reduced | tumor cell adhesion, CFSE positive cells in lung tissue (MADB106 tumor cells [5]; wild-type F344USA rats, single injection i.v. + i.p., vs. saline, TFA): no significant effect; also recorded: significant differences vs. saline treated controls were not found
